Results taken from PubChem BioAssay AID489033 (Sanford-Burnham Center for Chemical Genomics, 2010).
Active and inactive are the calls of the source. How the calls were made is not given here.

Tested on: 697B B-cell line, NF-kB luciferase reporter luminescence
Experiment: inhibitors of B-cell NF-kB luciferase signal – 697B cells, luminescence, selectivity assay for T-cell antigen receptor NF-kB inhibitors, dose response (AID 489033)

| SMILES | IC50 |
| --- | --- |
| COc1cc([C@@H]2c3cc4c(cc3[C@H](O)[C@H]3COC(=O)[C@H]23)OCO4)cc(OC)c1OC | > 80 µM (inactive) |
| COc1cc(NC(=O)N2CCNC2=O)cc(C(=O)Nc2cccc(C(F)(F)F)c2)c1 | < 0.16 µM |
| CCN1/C(=C/c2ccc3ccccc3[n+]2CC)C=Cc2ccccc21 | 3.57 µM |
| CC(C)(C)C(=O)Nc1ccc(NC(=O)c2ccco2)nc1 | 1.47 µM |
| CN(Cc1ccccc1)C1=CC(=[N+]2CCCCC2)CC(C)(C)C1 | > 80 µM (inactive) |
| CCc1cc2c(=O)nc3n(c2s1)Cc1ccccc1/C3=C(/O)c1cccc([N+](=O)[O-])c1 | > 80 µM (inactive) |
| CCCOCCOC(=O)c1[nH]c2c(c1C)C(=O)CC(c1cc(OC)ccc1OC)C2 (configuration not stated) | > 80 µM (inactive) |
| CN[C@H]1CCc2cc(OC)c(OC)c(OC)c2-c2ccc(OC)c(=O)cc21 | > 80 µM (inactive) |
| CCOc1ccc(N(C)S(=O)(=O)c2ccc(-c3cc(C)no3)s2)cc1 | > 80 µM (inactive) |
| Cc1cc(C)c2nc(C)cc(N/N=C/c3ccc(O)cc3)c2c1 | 3.49 µM |
| CCc1ccc2nc(SCC(=O)Nc3ccccc3N3CCOCC3)c(C#N)cc2c1 | > 80 µM (inactive) |
| CCCCCCCn1c2c(c(=N)c3ccccc31)CCC2 | 3.7 µM |
| COc1ccc(C(=O)c2ccc(N(C)C)cc2)c(OC)c1 | > 80 µM (inactive) |
| Cc1ccc(C)c(N=Nc2ccc(O)c3ncccc23)c1 | 4.44 µM |
| CCOC(=O)C(C)Oc1cccc2c(=O)n(CC(=O)NCc3ccccc3)ccc12 (configuration not stated) | > 80 µM (inactive) |
| CCCCn1c2c(c(=N)c3c1CCC3)CCC2 | > 80 µM (inactive) |
| Cc1cc(C)c(CN2CCN(C(=O)Cn3cnc4c(OCc5ccccc5)ncnc43)CC2)c(C)c1 | > 80 µM (inactive) |
| CCOCCCNC(=O)c1ccc2c(c1)N=C(CC)c1cc(Br)ccc1S2 | > 80 µM (inactive) |
| CCC(C)C(=O)N[C@@H](c1ccccc1)[C@@H](O)C(=O)O[C@H]1C[C@@]2(O)[C@@H](OC(=O)c3ccccc3)C3[C@](C)(C(=O)[C@H](OC(C)=O)C(=C1C)C2(C)C)[C@@H](O)C[C@H]1OC[C@@]31OC(C)=O (some centres not stated) | > 80 µM (inactive) |
| COc1ccc(C(=O)N(C)Cc2cnn(Cc3ccccc3)c2)cc1S(=O)(=O)N1CCOCC1 | > 80 µM (inactive) |
| Cc1cc(NC(=O)CSc2nc3ccccc3c(=O)n2C2CCCC2)no1 | > 80 µM (inactive) |
| Cc1ccc(N(C)S(=O)(=O)c2ccc(-c3cnc(C4CC4)o3)cc2)cc1 | 67.6 µM (inactive) |
| CCCOc1ccc(/C=N/Nc2cc(N3CCOCC3)ncn2)c(O)c1 | 11 µM |
| COc1ccc2nc(C)cc(N/N=C/c3ccc(F)cc3)c2c1 | 2.08 µM |

| SMILES | IC50 |
| --- | --- |
| COc1cccc2sc(Nc3nnc(-c4ccccc4Cl)o3)nc12 | 3.64 µM |
| NS(=O)(=O)c1ccc(Sc2nc3ccccc3s2)c([N+](=O)[O-])c1 | 1.34 µM |
| COc1cc(-c2noc(C)c2C#Cc2ccsc2)cc(OC)c1OC | 77.7 µM (inactive) |
| COC(=O)c1cn(NC(=O)c2cc([N+](=O)[O-])ccc2F)c(=O)c2ccccc12 | 2.43 µM |
| Cc1ccc(C(=O)c2cc([N+](=O)[O-])ccc2N2CCCCC2)cc1C | > 80 µM (inactive) |
| CCOCCOC(=O)c1[nH]c2c(c1C)C(=O)CC(c1ccccc1)C2 (configuration not stated) | > 80 µM (inactive) |
| C=C1C(O)[C@@H]2O[C@]3(CC[C@H](/C=C/C(C)[C@@H]4CC(C)=CC5(O[C@H](C[C@@](C)(O)CO)CCC5O)O4)O3)CC[C@H]2O[C@@H]1C(O)CC(C)[C@H]1OC2(CCCCO2)CCC1C (some centres not stated) | 3.19 µM |
| CCOc1ccccc1C(=O)Nc1ccc2nc(N3CCN(c4ncccn4)CC3)cc(C)c2c1 | 4.69 µM |
| O=C(Nc1ccc(Cc2ccncc2)cc1)c1ccc(S(=O)(=O)N2CCCC2)cc1 | 5.3 µM |
| O=C1CC(c2cc(Br)ccc2F)c2cc3c(cc2N1)CCC3 (configuration not stated) | > 80 µM (inactive) |
| COc1cc(OC)c(/C=C2\C(=O)Nc3ccccc32)c(OC)c1 | 62.6 µM (inactive) |
| O=C(N=Nc1c(O)[nH]c2ccc(Br)cc12)c1ccccc1-n1cccc1 | 57 µM (inactive) |
| COc1cc2c(c(OC)c1OC)-c1ccc(OC)c(=O)cc1[C@@H](NC(C)=O)CC2 | > 80 µM (inactive) |
| COc1cccc(-c2cc(=O)c3cc(NC(=O)c4ccc(N(C)C)cc4)ccc3[nH]2)c1 | > 80 µM (inactive) |
| COc1ccc2c(c1)/C(=C/c1cnc[nH]1)C(=O)N2 | 4.8 µM |
| COC(=O)C1=C(CN2CCCc3ccccc32)NC(=O)NC1c1ccc(F)cc1 (configuration not stated) | 3.48 µM |
| CCOC(=O)c1ccc(NC(=O)Cn2cnc3cc(C)c(C)cc32)cc1 | > 80 µM (inactive) |
| COc1cc(C(=O)N2CCN(c3cccc(C)c3C)CC2)cc(OC)c1OC | > 80 µM (inactive) |
| Cc1ccc(NS(=O)(=O)c2ccc(-c3cnc(C4CC4)o3)cc2)c(C)c1 | > 80 µM (inactive) |
| COc1ccc(CNC(=O)c2c(C)oc3c2C(=O)c2ccccc2C3=O)cc1 | > 80 µM (inactive) |
| CC(=O)c1ccc(N2CCN(S(=O)(=O)c3ccc4c(c3)CC(C)N4C(=O)C3CC3)CC2)cc1 (configuration not stated) | 0.72 µM |
| COc1cc2nc(CN3CC=C(c4ccccc4)CC3)[nH]c(=O)c2cc1OC | 13.8 µM |
| O=Cc1cc2ccccc2nc1SCc1ccc(Cl)c(Cl)c1 | 48.8 µM (inactive) |
